In patent US20120283293A1, “Methods of neuroprotection involving Prostaglandin E2 EP4 (PGE2 EP4) receptor activation” (The Board of Trustees of the Leland Stanford Junior …, priority 2011, published 2012):

Tests used:
[1] = system: Akt phosphorylation in BV-2 cells; experiment: phospho-Akt quantitative Western (Ser473) and ELISA (Thr308) in LPS-treated BV-2 cells; assay type: cell-based, murine
Protocol: Nuclear and cytoplasmic fractions of BV-2 cells were prepared at several time points after treatment (0-120 minutes) using the nuclear extract kit from Active Motif (Carlsbad, Calif.). Briefly, cells were washed, collected in ice-cold PBS in the presence of phosphatase inhibitors, and centrifuged at 300×g for 5 min at 4° C. Cell pellets were resuspended in hypotonic buffer, treated with detergent, and centrifuged at 14,000×g for 30 sec at 4° C. After collection of the cytoplasmic fraction, nuclei were solubilized for 30 min in lysis buffer containing protease inhibitors. Lysates were centrifuged at 14,000×g for 30 min at 4° C. and supernatants were collected for NF-κB studies. To prepare whole cell lysates for phospho-Akt and phospho-IKK studies, cells were washed in ice-cold PBS and lysed in 20 mM Tris-HCl, pH 7.5, 150 mM NaCl, 1 mM Na2EDTA, 1 mM EGTA, 1% Triton, 2.5 mM sodium pyrophosphate, 1 mM β-glycerophosphate, 1 mM orthovanadate, 1 μg/ml leupeptin and 1 mM PMSF. Lysates were sonicated for 5 seconds, centrifuged at 14,000×g for 10 min at 4° C. and supernatants were collected for phospho-Akt and phospho-IKK studies. All protein concentrations were determined using the Bradford protein assay.
Western blot analysis. […] Immunoreactivity was detected using either sheep anti-rabbit or sheep anti-mouse HRP-conjugated secondary antibody (Amersham Biosciences, Arlington Heights, Ill.), followed by enhanced chemiluminescence (Pierce). Autoradiographic signals were quantified using NIH Image. […]
Measurements of phospho-Akt and total Akt were determined using the PathScan phospho-Akt (Thr308) and total Akt1 ELISA kits (Cell Signaling Technology, Danvers, Mass.). […]
In addition to its known Gas coupling to PKA, the EP4 receptor can signal via PI3K and Akt via a Gαi subunit (Fujino et al., 2002; Fujino & Regan, 2006). To further investigate whether EP4 signaling modulates PI3K/Akt pathway activity in LPS-stimulated BV-2 cells, levels of phospho-Akt were measured using quantitative Western analysis (phosphorylated Ser473 Akt; FIG. 3C) and ELISA (phosphorylated Thr308 Akt; FIG. 3D). […]

primary microglia = experiment: qPCR of inflammatory gene expression in LPS-stimulated primary microglia; assay type: cell-based, rat; conditions: LPS treated primary microglia, AE1-329 100 nM, 3 h
Protocol: Murine microglial-like BV-2 cells were grown in DMEM medium supplemented with 10% heat-inactivated fetal bovine serum (HyClone, Logan, Utah) and 100 units/ml each of penicillin and streptomycin and were maintained at 37° C. in a humidified atmosphere containing 5% CO2. For primary microglial cultures, cerebral cortices were isolated from postnatal day 2 Sprague-Dawley rat pups obtained from Charles River Laboratories International, Inc. (Davis, Calif.). Tissues were minced and incubated in 0.25% trypsin-EDTA, mechanically triturated in DMEM/F-12 with 10% FBS, and plated on poly-L-lysine-coated […]. Cultures were maintained for 14 days with media changes every 4 days. […]
qPCR was carried out as previously described (Liang et al., 2008). […] The mRNA level for each target gene was quantified by SYBR Green-based qPCR using the QuantiTect SYBR Green PCR kit (Qiagen). […] Quantification was performed using the standard curve method. […]
Inflammatory stimuli such as LPS can activate microglia through the CD14/TLR4 receptor complex and induce the expression of pro-inflammatory enzymes and cytokines (Fassbender et al., 2004; Walter et al., 2007). […] BV-2 cells were treated with LPS (10 ng/ml) in the presence or absence of the selective EP4 agonist AE1-329 (1 μM) for 6 h, and pro-inflammatory gene expression was measured using qPCR (see FIG. 2). […]

## COCc1ccccc1CC[C@H](O)/C=C/[C@H]1[C@H](O)CC(=O)[C@@H]1SCCCSCC(=O)O [AE1-329]
[1]; BV-2 cells, in the absence of LPS
  Akt phosphorylation, agonist alone: did not alter Akt phosphorylation
[1]; LPS (100 ng/ml) treated BV-2 cells, AE1-329 100 nM, over 60 minutes
  phospho-Ser473 Akt signal (quantitative Western): significant attenuation
[1]; LPS-treated BV-2 cells, AE1-329 100 nM, 60 minutes
  phospho-Thr308 Akt (ELISA, p-Akt/Akt): significant decrease
Primary microglia
  IL-10 expression: upregulation of the anti-inflammatory IL-10
  pro-inflammatory gene expression (iNOS, COX-2, TNF-α, gp91phox): downregulation of pro-inflammatory gene expression
